Results from patent publication US20100041089A1, “IMPROVED METHOD FOR DETECTING CHEMICAL […]” (priority 2006, published 2010).

Tested on: yeast genes (expressed mRNA)
Assay: DNA chip measurement of expressed mRNA of yeast genes after culture with a toxic chemical substance
Assay type: cell-based, Saccharomyces cerevisiae S288C
Method: Yeast (Saccharomyces cerevisiae S288C (a SUC2mal mel gap2 CUP1)) were cultured at 25° C. on YPD medium (yeast extract 1%, polypeptone 2%, glucose 2%). One of toxic chemical substances was added to the cell at logarithmic growth phase, and the cell was further cultured for two hours. Cell was cultured without any chemical substance in the same condition, and was used as a control. Concentrations of the chemical substances were defined to inhibit the growth of the yeast but not lead to death.
After the completion of cultivation, the culture was centrifuged to collect the cells. To the cells, sodium acetate buffer (50 mM sodium acetate, 10 mM EDTA, 1% SDS) was added, and the mixture was shaken at 65° C. for five minutes, followed by returning to room temperature, and obtaining the supernatant, which procedure was repeated two times. To the supernatant, ½ amount of a solution of phenol/chloroform (1:1) was added, and the mixture was centrifuged to give a supernatant, an equal amount of chloroform was added, and the mixture was centrifuged to give a supernatant. To the supernatant, an equal amount of isopropanol containing 0.3 M sodium acetate was added, and the mixture was allowed to stand at room temperature for 30 minutes, after which the mixture was centrifuged to give sediment of the whole RNAs. Seventy % ethanol was added to the sediment, and the mixture was again centrifuged to give sediment, which was then dried and dissolved in water. mRNA was isolated from the whole RNAs as followings. In view of the fact that a poly A chain is attached to the 3′ terminus of mRNA, a polynucleotide having a poly T structure which was immobilized on the surface of latex beads was used to trap the mRNA, and then the mRNA was washed and eluted with spine column (Oligotex-dT30<Super>mRNA Purification Kit, Takara). Reverse transcription of the mRNA was conducted with a reverse transcriptase (Super Script II Reverse Transcriptase; catalogue No. 18064-014, GibcoBRL) using fluorescence-labeled nucleotides to give cDNAs that were introduced with Cy3-dUTP or Cy5-dUTP during the reverse transcription.
The labeled cDNAs were dissolved in TE buffer (10 mM Tris-HCl/1 mM EDTA, pH 8.0), and the solution was dropped on the DNA chip containing the whole genes of yeast (DNA Chip Research Inc. Japan) so that the cDNAs were hybridized on the DNA chip at 65° C. for over 12 hours. The fluoresces intensity of the DNA chip was read with a scanner, and the ratio relative to the fluorescence intensity resulting from the absence of chemical substance was estimated as the following, which is shown in Tables 1 to 9.
In the Tables, “Intensity” indicated in the rightmost column is a value of the level of expressed mRNA of each gene in control cells as divided by the average level of the expressions of the whole genes. A gene of which mRNA level is lower in control, and is higher in cases of addition of chemical substance, is especially useful in the detection of toxic substances.
Here, when a ratio of an amount of mRNA expressed in the presence of the chemical substance to an amount of mRNA expressed in the absence of the chemical substance is two or more, then it is considered significant.

## N#Cc1c(Cl)c(Cl)c(Cl)c(C#N)c1Cl [(9), 2,4,5,6-Tetrachloro-1,3-benzenedicarbonitrile]
Yeast gene YAL034C, cultured two hours with substance
  The level of expressed mRNA in the presence of chemical substance/The level of expressed mRNA in the absence of chemical substance: 3.0
Yeast gene YAL053W, cultured two hours with substance
  The level of expressed mRNA in the presence of chemical substance/The level of expressed mRNA in the absence of chemical substance: 1.4
Yeast gene YAR027W, cultured two hours with substance
  The level of expressed mRNA in the presence of chemical substance/The level of expressed mRNA in the absence of chemical substance: 2.3
Yeast gene YAR028W, cultured two hours with substance
  The level of expressed mRNA in the presence of chemical substance/The level of expressed mRNA in the absence of chemical substance: 1.0
Yeast gene YBL048W, cultured two hours with substance
  The level of expressed mRNA in the presence of chemical substance/The level of expressed mRNA in the absence of chemical substance: 7.2
Yeast gene YBL065W, cultured two hours with substance
  The level of expressed mRNA in the presence of chemical substance/The level of expressed mRNA in the absence of chemical substance: 20.8
Yeast gene YBL075C (stress protein genes)
  The level of expressed mRNA in the presence of chemical substance/The level of expressed mRNA in the absence of chemical substance: 60.3
Yeast gene YBL107C, cultured two hours with substance
  The level of expressed mRNA in the presence of chemical substance/The level of expressed mRNA in the absence of chemical substance: 1.0
Yeast gene YBR008C (transport facilitation protein gene)
  The level of expressed mRNA in the presence of chemical substance/The level of expressed mRNA in the absence of chemical substance: 54.6
Yeast gene YBR072W (stress protein genes)
  The level of expressed mRNA in the presence of chemical substance/The level of expressed mRNA in the absence of chemical substance: 29.4
Yeast gene YBR096W, cultured two hours with the chemical substance
  The level of expressed mRNA in the presence of chemical substance/The level of expressed mRNA in the absence of chemical substance: 1.2
Yeast gene YBR256C
  The level of expressed mRNA in the presence of chemical substance/The level of expressed mRNA in the absence of chemical substance: 18.1
Yeast gene YCR082W, cultured two hours with substance
  The level of expressed mRNA in the presence of chemical substance/The level of expressed mRNA in the absence of chemical substance: 4.3
Yeast gene YCR107W, cultured for two hours with substance
  The level of expressed mRNA in the presence of chemical substance/The level of expressed mRNA in the absence of chemical substance: 196.6
Yeast gene YDL059C, DNA repair protein genes, cultured two hours with substance
  The level of expressed mRNA in the presence of chemical substance/The level of expressed mRNA in the absence of chemical substance: 10.5
Yeast gene YDL072C, cultured two hours with substance
  The level of expressed mRNA in the presence of chemical substance/The level of expressed mRNA in the absence of chemical substance: 1.1
Yeast gene YDL204W, cultured two hours with substance
  The level of expressed mRNA in the presence of chemical substance/The level of expressed mRNA in the absence of chemical substance: 2.3
Yeast gene YDL218W, cultured two hours with substance
  The level of expressed mRNA in the presence of chemical substance/The level of expressed mRNA in the absence of chemical substance: 72.5
Yeast gene YDL222C, cultured two hours with substance
  The level of expressed mRNA in the presence of chemical substance/The level of expressed mRNA in the absence of chemical substance: 1.9
Yeast gene YDL234C, cultured two hours with substance
  The level of expressed mRNA in the presence of chemical substance/The level of expressed mRNA in the absence of chemical substance: 4.6
Yeast gene YDL243C, cultured for two hours with substance
  The level of expressed mRNA in the presence of chemical substance/The level of expressed mRNA in the absence of chemical substance: 64.2
Yeast gene YDR018C, cultured two hours with substance
  The level of expressed mRNA in the presence of chemical substance/The level of expressed mRNA in the absence of chemical substance: 2.3
Yeast gene YDR031W, cultured two hours with substance
  The level of expressed mRNA in the presence of chemical substance/The level of expressed mRNA in the absence of chemical substance: 1.1
Yeast gene YDR070C, cultured two hours with substance
  The level of expressed mRNA in the presence of chemical substance/The level of expressed mRNA in the absence of chemical substance: 13.9
Yeast gene YDR194C, mitochondria-located protein gene, cultured two hours with substance
  The level of expressed mRNA in the presence of chemical substance/The level of expressed mRNA in the absence of chemical substance: 2.8
Yeast gene YDR214W, cultured two hours with substance
  The level of expressed mRNA in the presence of chemical substance/The level of expressed mRNA in the absence of chemical substance: 5.5
Yeast gene YDR253C
  The level of expressed mRNA in the presence of chemical substance/The level of expressed mRNA in the absence of chemical substance: 14.8
Yeast gene YDR330W, cultured two hours with substance
  The level of expressed mRNA in the presence of chemical substance/The level of expressed mRNA in the absence of chemical substance: 3.9
Yeast gene YDR340W, cultured two hours with substance
  The level of expressed mRNA in the presence of chemical substance/The level of expressed mRNA in the absence of chemical substance: 1.4
Yeast gene YDR350C, cultured two hours with substance
  The level of expressed mRNA in the presence of chemical substance/The level of expressed mRNA in the absence of chemical substance: 2.8
Yeast gene YDR374C, cultured two hours with substance
  The level of expressed mRNA in the presence of chemical substance/The level of expressed mRNA in the absence of chemical substance: 10.4
Yeast gene YDR391C, cultured two hours with substance
  The level of expressed mRNA in the presence of chemical substance/The level of expressed mRNA in the absence of chemical substance: 1.5
Yeast gene YDR411C, cultured two hours with substance
  The level of expressed mRNA in the presence of chemical substance/The level of expressed mRNA in the absence of chemical substance: 0.7
Yeast gene YDR486C, cultured two hours with substance
  The level of expressed mRNA in the presence of chemical substance/The level of expressed mRNA in the absence of chemical substance: 2.5
Yeast gene YDR494W, cultured two hours with substance
  The level of expressed mRNA in the presence of chemical substance/The level of expressed mRNA in the absence of chemical substance: 1.2
Yeast gene YDR511W, cultured two hours with substance
  The level of expressed mRNA in the presence of chemical substance/The level of expressed mRNA in the absence of chemical substance: 2.5
Yeast gene YDR513W
  The level of expressed mRNA in the presence of chemical substance/The level of expressed mRNA in the absence of chemical substance: 4.6
Yeast gene YDR545W, cultured two hours with substance
  The level of expressed mRNA in the presence of chemical substance/The level of expressed mRNA in the absence of chemical substance: 1.8
Yeast gene YEL001C, cultured two hours with substance
  The level of expressed mRNA in the presence of chemical substance/The level of expressed mRNA in the absence of chemical substance: 2.0
Yeast gene YER004W, cultured two hours with substance
  The level of expressed mRNA in the presence of chemical substance/The level of expressed mRNA in the absence of chemical substance: 4.5
Yeast gene YER035W, cultured two hours with substance
  The level of expressed mRNA in the presence of chemical substance/The level of expressed mRNA in the absence of chemical substance: 1.2
Yeast gene YER038C, cultured two hours with substance
  The level of expressed mRNA in the presence of chemical substance/The level of expressed mRNA in the absence of chemical substance: 0.7
Yeast gene YER079W, cultured two hours with substance
  The level of expressed mRNA in the presence of chemical substance/The level of expressed mRNA in the absence of chemical substance: 5.3
Yeast gene YER096W, metabolism protein genes
  The level of expressed mRNA in the presence of chemical substance/The level of expressed mRNA in the absence of chemical substance: 7.5
Yeast gene YER103W (stress protein genes)
  The level of expressed mRNA in the presence of chemical substance/The level of expressed mRNA in the absence of chemical substance: 20.3
Yeast gene YER106W, cultured two hours with substance
  The level of expressed mRNA in the presence of chemical substance/The level of expressed mRNA in the absence of chemical substance: 0.4
Yeast gene YER158C, cultured two hours with substance
  The level of expressed mRNA in the presence of chemical substance/The level of expressed mRNA in the absence of chemical substance: 2.1
Yeast gene YER163C, cultured two hours with substance
  The level of expressed mRNA in the presence of chemical substance/The level of expressed mRNA in the absence of chemical substance: 5.4
Yeast gene YER175C, cultured two hours with substance
  The level of expressed mRNA in the presence of chemical substance/The level of expressed mRNA in the absence of chemical substance: 1.9
Yeast gene YFL006W, cultured two hours with substance
  The level of expressed mRNA in the presence of chemical substance/The level of expressed mRNA in the absence of chemical substance: 3.2
